Results as given in patent US20030124655A1, “Receptor protein specifically recognizing bacterial dna” (priority 2000, published 2003).
Like-named read-outs stand apart in the source and are kept apart here.

Tests used:
spleen cells = experiment: Spleen cell proliferation, [3H]-timidine uptake; type: cell-based, mouse
B cells = experiment: MHC class II expression on the surface of B cells; type: cell-based, mouse; details: B cells from wild-type mice
[1] = system: dendritic cells derived from bone marrow; experiment: IL-12 p40 production in bone marrow-derived dendritic cells (ELISA); type: cell-based, mouse; details: dendritic cells from wild-type mice; 0.1 μM, 2 days
JNK = JNK activity in macrophages, in vitro kinase assay; type: cell-based, mouse
Protocol: (§1) As described in a reference (Immunity 11, 115-122, 1999), the JNK activity and IRAK activity were measured by in vitro kinase assay using GST-c-Jun fusion protein (GST-c-Jun) as a substrate (top figures of FIG. 10 and FIG. 11; GST-c-Jun, Auto).
(§2) The cell lysates were separated by SDS-polyacrylamide gel electrophoresis to transfer them onto a nitrocellulose membrane and blotted the membrane with anti-JNK antibody (Santa Cruz) or anti-IRAK antibody (Transduction Laboratories) to visualize using an enhanced chemiluminescent system (Dupont) (bottom figures of FIG. 10 and FIG. 11; WB).

IRAK = IRAK activity in macrophages, in vitro kinase assay; type: cell-based, mouse
Protocol: as §1, §2

[2] = cited from earlier work
NF-κB = NF-κB DNA-binding activity in peritoneal macrophages (gel shift); details: 1.0 μM
Protocol: 2 ml of 4% thioglycolic acid medium (DIFCO) was injected to each peritoneum of wild-type mice and TLR9 knockout mice (TLR9^−/−), peritoneal exudation cells were isolated from peritonea from each mouse after 3 days, the cells were cultured in RPMI1640 medium to which 10% of fetal bovine serum (GIBCO) was added at 37° C. for 2 hours, and remove the unattached cells by washing with ice-chilled Hank's buffered salt solution (HBSS; GIBCO), and the attached cells were used as peritoneal macrophages in the following experiments.

[3] = macrophages from TLR9 knockout mice
[4] = macrophages from wild-type mice

## TCC-ATG-ACG-TTC-CTG-ATG-CT (DNA TCCATGACGTTCCTGATGCT; listed as DNA, chemistry not given here) [CpG ODN]
Spleen cells; spleen cells from TLR9 knockout mice, any concentration
  cell proliferating reaction ([3H]-timidine uptake): did not show any cell proliferating reaction
Spleen cells; spleen cells from wild-type mice
  cell proliferating reaction ([3H]-timidine uptake): promote cell proliferating reactions depending on the amount
B cells
  amount of expressing MHC class II on the surface of B cells: increased
[1]
  IL-12 p40 production: produced IL-12
JNK; [3]
  JNK activation: does not activate
JNK; [4]
  JNK activation: activates
IRAK; [3]
  IRAK activation: does not activate
IRAK; [4]
  IRAK activation: activates
[2]; MyD88 knockout mice
  response to CpG ODN: do not show response
[2]; TLR2 knockout mice
  response to CpG ODN: show normal response
[2]; TLR4 knockout mice
  response to CpG ODN: show normal response
NF-κB; [3]
  NF-κB DNA-binding activity: did not increase NF-κB DNA-binding activity
NF-κB; [4]
  NF-κB DNA-binding activity: increased NF-κB DNA-binding activity
